In patent publication US20150209366A1, “COMBINATION OF A MACROCYCLIC PROTEASE INHIBITOR OF HCV, A NON-NUCLEOSIDE HCV INHIBITOR AND RITONAVIR” (Janssen Pharmaceuticals, Inc., priority 2012, published 2015):

Assays:
[1] = Pharmacokinetics of compound (I), alone versus in combination with (III) and ritonavir, healthy subjects; assay type: in vivo, human; conditions: geometric mean; for Cmax / AUC(0-t): human, in vivo; for AUC(0-t): read-out: AUC24 h
Procedure: The pharmacokinetic variables for the compound of formula (I) and (III) administered alone where compared when they were co-administered in a combination of (I), (II) and (III). All tables indicate Geometric mean (CV %) pharmacokinetic parameters and might be the result of multiple studies. The compounds are indicated by their respective numbers (I, II or III) in the tables below. A comparison is made between administration of compound of Formula (I) 150 mg alone versus 300 mg compound of formula (III) in combination with 50 mg of compound of Formula (I) and 20 mg of Ritonavir (compound of Formula (II) according to the following protocol. • 150 mg qd (I) given for 14 days to 10 healthy subjects • Washout of 14 days • 50 mg qd (I), 300 mg qd (III), 20 mg qd ritonavir (II) given for 14 days to the same 10 healthy volunteers.

[2] = Pharmacokinetics of compound (III), alone versus in combination with (I) and ritonavir; assay type: in vivo, human; conditions: geometric mean (CV%); for Cmax / AUC(0-t): human, in vivo; for AUC(0-t): read-out: AUC24 h
Procedure: The pharmacokinetic variables for the compound of formula (I) and (III) administered alone where compared when they were co-administered in a combination of (I), (II) and (III). All tables indicate Geometric mean (CV %) pharmacokinetic parameters and might be the result of multiple studies. The compounds are indicated by their respective numbers (I, II or III) in the tables below. A comparison is made between an administration of compound of Formula (III) 1000 mg alone, versus 300 mg compound of formula (III) in combination with 50 mg of compound of Formula (I) and 20 mg of Ritonavir (compound of Formula (II). The results are indicated in table 2 below.

[3] = 50 mg (I) + 300 mg (III) + 20 mg RTV qd for 14 days, same 10 healthy volunteers
[4] = (I) alone, 150 mg qd for 14 days, 10 healthy subjects
[5] = 300 mg (III) + 50 mg (I) + 20 mg (II) qd

Row | Cmin [1, 3] [ng/mL] | Cmin [1, 4] [ng/mL] | Cmax [1, 3] [ng/mL] | AUC(0-t) [1, 3] [ng·h/mL] | Cmax [1, 4] [ng/mL] | AUC(0-t) [1, 4] [ng·h/mL] | Cmin [2, 5] | Cmin ([2]; (III) alone, 1000 mg bid) | Cmax [2, 5] [ng/mL] | AUC(0-t) [2, 5] [ng·h/mL] | Cmax ([2]; (III) alone, 1000 mg bid) [ng/mL] | AUC(0-t) ([2]; (III) alone, 1000 mg bid) [ng·h/mL] | Structure (SMILES)
1 | 375 | 1405 | 1460 | 20000 | 4750 | 71200 | – | – | – | – | – | – | COc1ccc2c(O[C@@H]3C[C@H]4C(=O)N[C@]5(C(=O)NS(=O)(=O)C6CC6)C[C@H]5/C=C\CCCCN(C)C(=O)[C@@H]4C3)cc(-c3nc(C(C)C)cs3)nc2c1C [I, (1R,4R,6S,15R,17R)-cis-N-[17-[2-(4-isopropylthiazole-2-yl)-7-methoxy-8-methylquinolin-4-yloxy]-13-methyl-2,14-dioxo-3,13-diazatricyclo[13.3.0.0^4,6]octadec-7-ene-4-carbonyl]-(cyclopropyl)sulfonamide]
2 | – | – | – | – | – | – | 0.21 (86%) μg/ml | 0.16 (42%) μg/ml | 6570 | 52200 | 5220 | 40100 | COc1ccc2c(c1)C=C1Cn3c-2c(C2CCCCC2)c2ccc(cc23)C(=O)NS(=O)(=O)N(C)CCOCCN(C)C1=O [III]
